Molecular target: T1, PLC γ1 (Homo sapiens, UniProt P19174)
T1 sequence (P19174 1-1290): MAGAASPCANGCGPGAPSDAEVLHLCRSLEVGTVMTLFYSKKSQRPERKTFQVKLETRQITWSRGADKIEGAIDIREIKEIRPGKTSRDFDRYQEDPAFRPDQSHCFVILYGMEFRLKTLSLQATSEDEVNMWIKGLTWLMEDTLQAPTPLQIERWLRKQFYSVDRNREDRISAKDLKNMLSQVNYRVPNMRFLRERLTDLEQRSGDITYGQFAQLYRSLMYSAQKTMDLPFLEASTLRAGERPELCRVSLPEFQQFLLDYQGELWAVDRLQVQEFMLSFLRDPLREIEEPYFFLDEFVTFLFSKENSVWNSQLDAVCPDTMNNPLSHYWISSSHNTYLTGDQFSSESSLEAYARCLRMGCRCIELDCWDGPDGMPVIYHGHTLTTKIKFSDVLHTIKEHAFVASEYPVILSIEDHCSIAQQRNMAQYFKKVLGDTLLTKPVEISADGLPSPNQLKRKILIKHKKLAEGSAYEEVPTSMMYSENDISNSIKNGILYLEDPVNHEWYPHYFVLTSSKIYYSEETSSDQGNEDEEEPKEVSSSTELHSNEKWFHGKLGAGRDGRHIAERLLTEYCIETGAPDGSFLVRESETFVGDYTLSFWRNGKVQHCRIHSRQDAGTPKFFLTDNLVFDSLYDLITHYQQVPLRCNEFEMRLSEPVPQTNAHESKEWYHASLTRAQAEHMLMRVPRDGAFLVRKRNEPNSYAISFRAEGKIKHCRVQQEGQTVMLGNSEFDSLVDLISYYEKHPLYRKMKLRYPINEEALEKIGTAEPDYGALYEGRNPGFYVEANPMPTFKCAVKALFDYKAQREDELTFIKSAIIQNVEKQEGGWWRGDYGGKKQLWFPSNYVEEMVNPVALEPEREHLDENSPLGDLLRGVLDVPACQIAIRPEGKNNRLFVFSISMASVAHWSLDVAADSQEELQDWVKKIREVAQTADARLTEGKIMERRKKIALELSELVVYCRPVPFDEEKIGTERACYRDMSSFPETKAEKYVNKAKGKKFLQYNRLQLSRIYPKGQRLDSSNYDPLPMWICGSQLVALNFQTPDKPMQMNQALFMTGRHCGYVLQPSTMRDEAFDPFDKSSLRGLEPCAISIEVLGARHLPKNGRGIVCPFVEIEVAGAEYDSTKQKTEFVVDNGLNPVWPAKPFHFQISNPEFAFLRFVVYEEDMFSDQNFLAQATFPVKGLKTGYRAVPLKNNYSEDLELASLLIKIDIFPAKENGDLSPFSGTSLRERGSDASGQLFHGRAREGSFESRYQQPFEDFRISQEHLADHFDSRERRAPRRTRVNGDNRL
Assay: Phosphoinositide hydrolysis in vitro
Assay type: biochemical
Conditions: 25 μM; purified isozyme
Experimental: The hydrolyzing activity of PtdIns-4,5-P2 was measured on mixed phospholipid vesicles containing 120 μM phosphatidylethanolamine, 30 μM PtdIns-4,5-P2, and 1 μCi/ml [3H] PtdIns-4,5-P2. Purified PLC β2, substrates, and the chemicals (2.5, 5, 10, 20, and 25 μM of m-3M3FBS or of o-3M3FBS) were coincubated (A), 25 μM of m-3M3FBS or o-3M3FBS, and phospholipid substrates were mixed with purified PLC β3, γ1, 2, or δ1 (B). Reactions were performed for 10 min at 37° C. in a 200 μl reaction mixture containing lipid micelles (5 μM [^3H] PtdIns-4,5-P2, 20,000 cpm). Reactions were stopped by adding 1 ml of CHCl3:CH3OH:HCl (50:50:0.3, v/v/v). Inositol trisphosphates were extracted with 0.5 ml of 1 M HCl/5 mM EGTA, and the radioactivity in the upper aqueous phase was measured. Data are presented as means ±S. E. M. of three independent experiments (A, B).
PLC activity was assayed using [^3H] PtdIns-4,5-P2 as a substrate (Min et al., 1993). PtdIns-4,5-P2-hydrolyzing activity was measured with mixed phospholipid micelles containing 120 μM phosphatidylethanolamine, 30 μM PtdIns-4,5-P2, and 1 μCi/ml [^3H] PtdIns-4,5-P2. The lipids, in chloroform, were dried under a stream of nitrogen gas, suspended in assay buffer (20 mM HEPES pH 7.0, 120 mM NaCl, 2 mM MgCl2, 40 or 100 μM CaCl2, and 1 mg/ml bovine albumin serum (Bayer, Leverkusen, Germany)), and sonicated. All proteins added to the reaction mixture were dialyzed overnight against the assay buffer. Incubation was performed for 10 min at 37° C. in a 200 μl reaction mixture containing lipid micelles (5 μM [3H] PtdIns-4,5-P2, 20,000 cpm). The reaction was stopped by adding 2 ml of CHCl3: CH3OH: HCl (50: 50: 0.3, v/v/v). The inositol triphosphates were extracted with 0.5 ml of 1 N HCl, and radioactivities in the upper aqueous phase were measured.

Cc1cc(C)c(S(=O)(=O)Nc2cccc(C(F)(F)F)c2)c(C)c1 [m-3M3FBS, 2,4,6-Trimethyl-N-(meta 3-trifluoromethyl-phenyl)-benzenesulfonamide] was tested, and the “activity of PLC gamma1” value was “augmented the activity”.

With Cc1cc(C)c(S(=O)(=O)Nc2ccccc2C(F)(F)F)c(C)c1 [o-3M3FBS, 2,4,6-Trimethyl-N-(ortho 3-trifluoromethyl-phenyl)-benzenesulfonamide, reference compound] the “activity of PLC gamma1” value was “did not affect”.

Source: patent US20040220268A1, “Compound that directly stimulates phospholipase C activity” (priority 2003, published 2004)
